Converted amounts (≈) assume the structure as drawn.
Columns and labels:
Assay in all cases: in vitro antibacterial evaluation, MIC by broth dilution
Assay type in all cases: cell-based
Enterococcus sp. = settings: broth dilution, 18 hours at 35° C.
Method in brief: (§1)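 MIC, the lowest antibiotic concentration preventing growth, was read across 64-0.06 μg/mL with 5×10^5 CFU/mL inoculum. Method followed NCCLS M7-A2 broth dilution using Mueller-Hinton II; Gram-positive strains covered recent methicillin-, penicillin- and/or vancomycin-resistant clinical isolates.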

Escherichia coli = system: Escherichia coli
Method in brief: as §1

Staphylococcus sp. = settings: broth dilution, 18 hours at 35° C.; for MIC Staphylococcus aureus (GC 1131): strain GC 1131
Method in brief: as §1

Streptococcus sp. = settings: broth dilution, 18 hours at 35° C.
Method in brief: as §1

Structure (SMILES): COc1cccc(C2OC3C(OC4C(CO)OC(Oc5ccc(CC6NC(=O)C(C(C)c7ccccc7)NC(=O)CNC(=O)C(CO)NC(=O)C(C(O)C7CNC(=N)N7C7OC(CO)C(O)C(O)C7O)NC(=O)C(C(O)C7CNC(=N)N7)NC6=O)cc5)C(O)C4O)OC(CO)C(O)C3O2)c1 (single isomer, unassigned) [Example 137b, Cyclo[glycyl-β-methylphenylalanyl-O-[4-O-[2,3-O-(3-methoxybenzylidene)hexopyranosyl]-hexopyranosyl]tyrosyl-3-(2-iminoimidazolidin-4-yl)seryl-3-(3-hexopyranosyl-2-iminoimidazolidin-4-yl)serylseryl]]
- MIC Enterococcus avium (GC 4558) (Enterococcus sp.; Enterococcus avium (GC 4558)): 32 µg/mL (≈ 22.6 µM)
- MIC Enterococcus faecalis (ATCC 29212) (Enterococcus sp.; Enterococcus faecalis (ATCC 29212)): 32 µg/mL (≈ 22.6 µM)
- MIC Enterococcus faecalis (GC 2242) (Enterococcus sp.; Enterococcus faecalis (GC 2242)): 32 µg/mL (≈ 22.6 µM)
- MIC Enterococcus faecalis (GC 2691) (Enterococcus sp.; Enterococcus faecalis (GC 2691)): 32 µg/mL (≈ 22.6 µM)
- MIC Enterococcus faecalis (GC 3059) (Enterococcus sp.; Enterococcus faecalis (GC 3059)): 64 µg/mL (≈ 45.3 µM)
- MIC Enterococcus faecalis (GC 4552) (Enterococcus sp.; Enterococcus faecalis (GC 4552)): 32 µg/mL (≈ 22.6 µM)
- MIC Enterococcus faecalis (GC 4553) (Enterococcus sp.; Enterococcus faecalis (GC 4553)): 32 µg/mL (≈ 22.6 µM)
- MIC Enterococcus faecalis (GC 4554) (Enterococcus sp.; Enterococcus faecalis (GC 4554)): 64 µg/mL (≈ 45.3 µM)
- MIC Enterococcus faecalis (GC 6189) (Enterococcus sp.; Enterococcus faecalis (GC 6189)): 32 µg/mL (≈ 22.6 µM)
- MIC Enterococcus faecium (GC 2243) (Enterococcus sp.; Enterococcus faecium (GC 2243)): 64 µg/mL (≈ 45.3 µM)
- MIC Enterococcus faecium (GC 4556) (Enterococcus sp.; Enterococcus faecium (GC 4556)): 32 µg/mL (≈ 22.6 µM)
- MIC Enterococcus faecium (GC 4557) (Enterococcus sp.; Enterococcus faecium (GC 4557)): 8 µg/mL (≈ 5.66 µM)
- MIC Enterococcus faecalis (ATCC 29212) (Enterococcus sp.; strain ATCC 29212): 32 µg/mL (≈ 22.6 µM)
- MIC Enterococcus faecalis (GC 2242) (Enterococcus sp.; strain GC 2242): 32 µg/mL (≈ 22.6 µM)
- MIC Enterococcus faecium (GC 2243) (Enterococcus sp.; strain GC 2243): 64 µg/mL (≈ 45.3 µM)
- MIC Enterococcus faecalis (GC 2691) (Enterococcus sp.; strain GC 2691): 32 µg/mL (≈ 22.6 µM)
- MIC Enterococcus faecalis (GC 3059) (Enterococcus sp.; strain GC 3059): 64 µg/mL (≈ 45.3 µM)
- MIC Enterococcus faecalis (GC 4552) (Enterococcus sp.; strain GC 4552): 32 µg/mL (≈ 22.6 µM)
- MIC Enterococcus faecalis (GC 4553) (Enterococcus sp.; strain GC 4553): 32 µg/mL (≈ 22.6 µM)
- MIC Enterococcus faecalis (GC 4554) (Enterococcus sp.; strain GC 4554): 64 µg/mL (≈ 45.3 µM)
- MIC Enterococcus faecium (GC 4556) (Enterococcus sp.; strain GC 4556): 32 µg/mL (≈ 22.6 µM)
- MIC Enterococcus faecium (GC 4557) (Enterococcus sp.; strain GC 4557): 8 µg/mL (≈ 5.66 µM)
- MIC Enterococcus avium (GC 4558) (Enterococcus sp.; strain GC 4558): 32 µg/mL (≈ 22.6 µM)
- MIC Enterococcus faecalis (GC 6189) (Enterococcus sp.; strain GC 6189): 32 µg/mL (≈ 22.6 µM)
- MIC Escherichia coli (ATCC 25922) (Escherichia coli; strain ATCC 25922, 18 hours at 35° C.): >64 µg/mL
- MIC Escherichia coli (GC 4559) (Escherichia coli; strain GC 4559, 18 hours at 35° C.): >64 µg/mL
- MIC Escherichia coli (GC 4560) (Escherichia coli; strain GC 4560, 18 hours at 35° C.): 4 µg/mL (≈ 2.83 µM)
- MIC Staphylococcus aureus (GC 1131) (Staphylococcus sp.; inoculum 5×10^5 CFU/mL): 16 µg/mL (≈ 11.3 µM)
- MIC Staphylococcus aureus (ATCC 29213) (Staphylococcus sp.; strain ATCC 29213): 16 µg/mL (≈ 11.3 µM)
- MIC Staphylococcus aureus (GC 1131) (Staphylococcus sp.): 16 µg/mL (≈ 11.3 µM)
- MIC Staphylococcus aureus (GC 3051) (Staphylococcus sp.; strain GC 3051): 16 µg/mL (≈ 11.3 µM)
- MIC Staphylococcus aureus (GC 3053) (Staphylococcus sp.; strain GC 3053): 16 µg/mL (≈ 11.3 µM)
- MIC Staphylococcus aureus (GC 4541) (Staphylococcus sp.; strain GC 4541): 8 µg/mL (≈ 5.66 µM)
- MIC Staphylococcus aureus (GC 4542) (Staphylococcus sp.; strain GC 4542): 16 µg/mL (≈ 11.3 µM)
- MIC Staphylococcus aureus-SMITH (GC 4543) (Staphylococcus sp.; strain GC 4543): 8 µg/mL (≈ 5.66 µM)
- MIC Staphylococcus aureus (GC 4544) (Staphylococcus sp.; strain GC 4544): 16 µg/mL (≈ 11.3 µM)
- MIC Staphylococcus aureus (GC 4545) (Staphylococcus sp.; strain GC 4545): 16 µg/mL (≈ 11.3 µM)
- MIC Staphylococcus haemolyticus (GC 4546) (Staphylococcus sp.; strain GC 4546): 8 µg/mL (≈ 5.66 µM)
- MIC Coagulase Negative Staphylococcus (GC 4547) (Staphylococcus sp.; strain GC 4547): 8 µg/mL (≈ 5.66 µM)
- MIC Coagulase Negative Staphylococcus (GC 4548) (Staphylococcus sp.; strain GC 4548): 4 µg/mL (≈ 2.83 µM)
- MIC Coagulase Negative Staphylococcus (GC 4549) (Staphylococcus sp.; strain GC 4549): 8 µg/mL (≈ 5.66 µM)
- MIC Coagulase Negative Staphylococcus (GC 4551) (Staphylococcus sp.; strain GC 4551): 8 µg/mL (≈ 5.66 µM)
- MIC Coagulase Negative Staphylococcus (GC 6257) (Staphylococcus sp.; strain GC 6257): 4 µg/mL (≈ 2.83 µM)
- MIC Staphylococcus aureus-SMITH (GC 4543) (Staphylococcus sp.; strain SMITH GC 4543): 8 µg/mL (≈ 5.66 µM)
- MIC Streptococcus agalactiae (GC 4564) (Streptococcus sp.; Streptococcus agalactiae (GC 4564)): 4 µg/mL (≈ 2.83 µM)
- MIC Streptococcus pneumoniae (ATCC 6301) (Streptococcus sp.; Streptococcus pneumoniae (ATCC 6301)): 2 µg/mL (≈ 1.42 µM)
- MIC Streptococcus pneumoniae (GC 1894) (Streptococcus sp.; Streptococcus pneumoniae (GC 1894)): 1 µg/mL (≈ 0.708 µM)
- MIC Streptococcus pneumoniae (GC 4565) (Streptococcus sp.; Streptococcus pneumoniae (GC 4565)): 2 µg/mL (≈ 1.42 µM)
- MIC Streptococcus pyogenes (GC 4563) (Streptococcus sp.; Streptococcus pyogenes (GC 4563)): 4 µg/mL (≈ 2.83 µM)
- MIC Streptococcus pneumoniae (ATCC 6301) (Streptococcus sp.; strain ATCC 6301): 2 µg/mL (≈ 1.42 µM)
- MIC Streptococcus pneumoniae (GC 1894) (Streptococcus sp.; strain GC 1894): 1 µg/mL (≈ 0.708 µM)
- MIC Streptococcus pyogenes (GC 4563) (Streptococcus sp.; strain GC 4563): 4 µg/mL (≈ 2.83 µM)
- MIC Streptococcus agalactiae (GC 4564) (Streptococcus sp.; strain GC 4564): 4 µg/mL (≈ 2.83 µM)
- MIC Streptococcus pneumoniae (GC 4565) (Streptococcus sp.; strain GC 4565): 2 µg/mL (≈ 1.42 µM)

From patent publication US6914045B2, “Glycopeptide antibiotics” (Wyeth Holdings Corporation, priority 2001, dated 2005)
